According to ChEMBL document CHEMBL1131629, “4-Benzylamino-1-chloro-6-substituted phthalazines: synthesis and inhibitory activity toward phosphodiesterase 5” (J Med Chem, 1998):

Organism: Sus scrofa
Experiment: Vasorelaxation effect in porcine coronary arteries precontracted with PGF2-alpha
Format: functional

| EC50 | SMILES |
| --- | --- |
| 150 nM | COc1ccc(CNc2nnc(Cl)c3ccc(C#N)cc23)cc1Cl |
| 980 nM | O=C(O)C1CCN(c2nc(NCc3ccc4c(c3)OCO4)c3cc(Cl)ccc3n2)CC1 |
| 160 nM | COc1ccc(CNc2nnc(Cl)c3ccc([N+](=O)[O-])cc23)cc1Cl |
